{"source": "patent EP0583821A1", "about": "“Atriopeptins, guanylate cyclase activators, and phosphodiesterase inhibitors as treatment for glaucoma, hydrocephalus and cerebral edema (cranial fluid volume dysfunction)” (THE GENERAL HOSPITAL CORPORATION, priority 1987, dated 1988)", "key": {"rabbits [1]": {"test_system": "rabbits", "assay": "Intraocular pressure and ocular observations after topical (eye drop) application", "format": "in vivo, rabbit", "method": "The measurement of intraocular pressure (IOP), was performed using procedures similar to those described in Nathanson, Brit. J. Pharmacol., 73:97 (1981) and Nathanson, Current Eye Res., 4:191 (1985). Briefly, male (3-5 kg), New Zealand white rabbits were housed under standard conditions and exposed to a 12 hr light-dark cycle. IOP was measured with a Perkins applanation tonometer after topical anesthesia with 0.4% benoxinate (and 0.25% sodium fluorescein). The tonometer had been calibrated previously by connecting the anterior chamber of enucleated rabbit eyes to a manometer (and reservoir) and taking tonometer readings at different pressures. A number of preliminary IOP readings were made in order to accommodate the animals to the measurement procedure. Readings were then taken just prior to drug or vehicle injection and at 3, 9, 20, 27, 44, 51, 72, and 144 hours post-injection.\nA potent PDE inhibitor of the arylxanthine class, 1,3-dibutylxanthine, was applied unilaterally and topically to rabbit eyes in a 0.5% solution. […] The IOP was decreased 4 mm (Hg) in the ipsilateral eye (Figure 8).\nAgain there was about a 4 mm (Hg) decrease in intraocular pressure. […] This xanthine inhibited the enzyme with an IC₅₀ (concentration necessary for 50% enzyme inhibition) of 25 uM.\n(§1) The effect of nitroglycerine eye drops on rabbit intraocular pressure was also measured. The IOP of 8 conscious, male albino rabbits (3-4 kg) was measured by applanation pnumatonometry after topical anesthesia with 0.4% benoxinate. Nitroglycerine in phosphate buffered saline, pH 7.4, was given unilaterally, in two 25µl drops spaced five minutes apart. Blood pressure and pulse rate were measured by a photoelectric detector using an automated external tail cuff. […] By 24 hours, pressure had returned to normal."}, "rabbits [2]": {"test_system": "rabbits", "assay": "Systemic blood pressure and pulse rate (tail cuff) after eye drops", "format": "in vivo, rabbit", "conditions": "0.03% eye drops", "method": "as §1"}, "guanylate cyclase": {"test_system": "guanylate cyclase", "assay": "Guanylate cyclase activation in crude broken-cell preparation of ciliary process", "format": "biochemical, rabbit", "conditions": "low concentrations", "method": "Generally, the broken cell preparations are prepared according to the method described in a paper by Nathanson et al., (Molecular Pharmacology 20:68 (1981), which is herein incorporated by reference. Choroid epithelial cells are prepared as described in Example 1. To measure activity of atriopeptins, analogues, or agonists thereof, washed particulate cell preparations are prepared by using the pellet obtained following high speed centrifugation. To measure direct activators of guanylate cyclase, the crude broken-cell preparation without centrifugation is used. Guanylate cyclase activity is measured in appropriate buffer-containing GTP, cofactors, tissue fraction, and the compound to be tested. […] Cyclic GMP can be measured by any test which indicates the presence thereof, typically by the radioimmunoassay as described in Example 6. […] Ka^B, where B is the test compound, is compared with the constant (Ka^ANF) determined in an analogous way using rat atrial natriuretic factor (rANF) as a standard. […]\nThe effect of rANP on membrane-bound guanylate cyclase and adenylate cyclase activity in various brain-barrier tissues and tissue fractions from rabbit was compared with its activity in cerebrum and cerebellum. Guanylate cyclase was measured as the rate of cyclic GMP formation by modifications of the technique of Waldman et al., supra, incorporated herein by reference. […]"}, "volunteer human": {"test_system": "volunteer human", "assay": "Eye drop in a volunteer human: IOP, blood pressure and pulse", "format": "in vivo", "conditions": "50µl of 0.1% aqueous solution in one eye", "method": "The effect of administration of a nitroglycerine eye drop preparation (50µl of 0.1% aqueous solution in one eye) in a volunteer human is illustrated in Figure 14. IOP was measured by applanation pnumatonometry and blood pressure and pulse were measured by arm cuff."}}}
{"smiles": "O=[N+]([O-])OCC(CO[N+](=O)[O-])O[N+](=O)[O-]", "note": "[nitroglycerine, 1,2,3-propanetriol trinitrate]", "values": [{"measurement": "decrease in IOP at maximum", "setting": "rabbits [1]; 0.03% (gm/100ml) solution, two 25µl drops, 8 rabbits", "value": 5.2, "unit": "mm Hg"}, {"measurement": "IOP at six hours", "setting": "rabbits [1]; 0.03% solution", "value": "still significantly reduced"}, {"measurement": "time of greatest IOP decrease", "setting": "rabbits [1]; 0.03% solution", "value": "greatest at one hour"}, {"measurement": "time until pressure had returned to normal", "setting": "rabbits [1]; 0.03% solution", "value": "≤ 24", "unit": "h"}, {"measurement": "effect of higher doses on IOP", "setting": "rabbits [1]; 50µl eye drops, doses above 0.03%, Fig. 13", "value": "no additional decrease in IOP"}, {"measurement": "effect of lower doses on IOP", "setting": "rabbits [1]; 50µl eye drops, lower doses, Fig. 13", "value": "less effective"}, {"measurement": "conjunctival inflammation and pupillary diameter", "setting": "rabbits [1]; all doses", "value": "At no dose did conjunctival inflammation nor any change in pupillary diameter occur"}, {"measurement": "contralateral decrease in pressure relative to that seen ipsilaterally", "setting": "rabbits [1]; higher doses", "value": "40-75%"}, {"measurement": "hyperemia of the conjunctival vessels", "setting": "rabbits [1]; higher doses (0.1%)", "value": "slight, transient (five minutes) hyperemia"}, {"measurement": "change in pulse rate or in systolic, diastolic or mean blood pressure", "setting": "rabbits [2]", "value": "no significant change"}, {"measurement": "stimulation of basal guanylate cyclase activity", "setting": "guanylate cyclase", "value": "significant stimulation"}, {"measurement": "effect on IOP", "setting": "volunteer human", "value": "significantly decreased IOP"}, {"measurement": "systemic blood pressure or pulse", "setting": "volunteer human", "value": "without change"}]}
